Measurements from US9572786B2, “Use of capsiate or dihydrocapsidate” (Catholic University Industry Academy Cooperation Foundation, priority 2007, dated 2017).

Tests used:
MMP-2 [1] = test: MMP-2 mRNA in mouse skin, RT-PCR; type: in vivo; settings: mouse tissue of Example 5; normalized using GAPDH
Protocol: (§1) mRNA was extracted from the mouse tissue of each test group of Example 5 and the level of expression thereof was evaluated in order to investigate the effect of capsiate on the expression of MMP-2 and MMP-9 induced by angiogenesis and immune response.
(§2) For RNA extraction from the tissue, each mouse tissue was subjected to skin biopsy, quickly frozen in liquid nitrogen and finely ground using a mortar. RNA was extracted from the mouse tissue using Trizol (Invitrogen, USA). PCR (PTC-225 Peltier thermal cycler, MJ Research, USA) was carried out using the RNA as template and using a commercial kit (reverse transcription system, Qiagen, USA). As a result, cDNA for each test group was prepared.
(§3) RT-PCR (Rotor Gene 6 series, Corbett Research, Australia) was carried out using thus prepared cDNA as template and using MMP-2 and MMP-9 primers (Qiagen, USA). The level of mRNA expression for MMP was normalized using GAPDH. The level of expression was compared with that of the non-treated group, which was treated with acetone only.

IL-2 = test: Secretion of IL-2 by T cells, ELISA; type: cell-based, C57/BL6 mouse; settings: mouse spleen T cells of Example 14-1; vs control group
Description: In order to investigate the effect of capsiate on activation of T cells, the production of IL-2 by the T cells the proliferation of which was induced in Example 14-1 was compared with the non-capsiate-treated control group. IL-2 is a T cell proliferation factor secreted from stimulated T cells and acts as a cytokine affecting the proliferation of T helper cells, cytotoxic T (TC) cells and natural killer (NK) cells, activation of T cells, proliferation of B cells, and production of antibody.
Specifically, the degree of IL-2 production was measured by ELISA. IL-2 recognition antibody was attached on a 96-well plate. Next day, after suppressing non-specific recognition using blocking buffer (PBS containing 5% BSA), cultured T cells were added to the plate and incubated at room temperature for 4 hours. Subsequently, after incubating using biotinylated IL-2 secondary antibody (Becton Dikinson, USA), absorbance (540 nm) was measured using an ELISA reader using biotin-recognizing enzyme antibody (streptavidine-conjugated HRP, Becton Dikinson, USA), while varying the substrate.

COX-2 = test: UV-induced COX-2 expression in mouse skin tissue, Western blotting; type: in vivo; settings: hairless mouse; 200 μL of 1 mM topically; 4 times of UV irradiation
Protocol: In order to confirm the in vitro experiment result performed on the human keratinocyte HaCaT cells in an animal model, experiment was carried out as follows using hairless mouse (SKH-1). Test groups were as follows: non-treated group—treated with acetone only without UV irradiation; test group A—treated with 200 μL of 1 mM capsiate dissolved in acetone every 24 hours without UV irradiation; control group—treated with UV and acetone; test group B—treated with UV and 200 μL of 1 mM capsiate dissolved in acetone every 24 hours (Unspecified conditions are the same as in Examples 5-7.).
Capsiate was applied on the back of the mouse. 1 hour later, UV was irradiated at an intensity of 2.5 kJ/m^2. 1 hour later, capsiate was applied again at the same concentration in order to prevent rash which may occur immediately after UV irradiation. Thereafter, capsiate was applied every 24 hours and UV irradiation was carried out every other day at an intensity of 2.5 kJ/m^2 for 4 times. In order to investigate the change of tissue and intracellular mechanism (signaling), the mouse was euthanized 1 hour after the final UV irradiation. Skin tissue was taken from the back of the mouse and subjected to skin biopsy following observation.
In the foregoing, it was confirmed that capsiate suppress inflammatory response, angiogenesis, edema, etc. caused by the UV-induced skin damage. […]

MMP-2 [2] = test: Zymography of secreted MMP-2 after UV; type: cell-based, human; settings: HaCaT culture medium; 10, 25, 50 μM; UV 100 J/m^2; 36 hours
Protocol: Zymography was carried out in order to investigate the decrease of expression and activity of MMP-2 and MMP-9 in protein level.
5×10^5 HaCaT cells were placed on a 60 mm Petri dish and cultured for 24 hours in DMEM containing 10% FBS. Subsequently, the cells were cultured for 24 hours in DMEM containing 1% FBS until starvation. Then, after treating with capsiate at different concentrations (10 μM, 25 μM, 50 μM) for 30 minutes, followed by washing 3 times with PBS, UV was irradiated at an intensity of 100 J/m^2. Immediately after the UV irradiation, the cells were washed again with PBS and further cultured for 36 hours in DMEM containing 1% FBS, which was treated with capsiate at the same concentration as in the pre-treatment. After collecting the culture medium, the activity of MMP-2 and MMP-9 proteins secreted from the cells into the medium was measured. To this end, the mediums obtained from the same number of cells were concentrated to the same volume, and the temperature was maintained at 4° C. in order to avoid the effect on the protein activity.
Thus prepared sample was subjected to electrophoresis at 4° C. using 7.5% acrylamide gel containing gelatin but without sodium dodecyl sulfate (SDS). […]

MMP-9 = MMP-9 mRNA in mouse skin, RT-PCR; type: in vivo; settings: mouse tissue of Example 5; normalized using GAPDH
Protocol: as §1, §2, §3

ICAM-1 (CD54) = test: ICAM-1 expression in mouse skin, Western blotting; type: in vivo; settings: mouse skin tissue; test group B
Protocol: In order to investigate the effect of capsiate on various intracellular angiogenesis-related expression factors, the inhibition effect of capsiate on angiogenesis factors induced by UV was evaluated using the mouse tissue of Example 5.
Western blotting was carried out in the same manner as Example 6 using the proteins isolated from the mouse skin tissue of each test group in Example 6, in order to investigate the level of expression of ICAM-1 (CD54), which is involved in cell infiltration, cell migration, angiogenesis, etc. in inflammatory response. In order to investigate the level of ICAM-1 expression, mouse anti-ICAM-1 antibody (Santa Cruz, USA) and HRP-conjugated secondary antibody (1:10,000, Zymed) were used.

COc1cc(COC(=O)CCCC/C=C/C(C)C)ccc1O [capsiate]
expression of MMP-2 (mRNA) in mouse skin tissue (MMP-2 [1]): decreased
IL-2 production by T cells (IL-2): significantly decreased
expression of COX-2 induced in mouse skin tissue (Western blotting) (COX-2): remarkably decreased
expression and activity of MMP-2 (zymography) (MMP-2 [2]): inhibited expression and activity
expression and activity of pro-MMP-2 (zymography) (MMP-2 [2]): inhibited expression and activity
expression of MMP-9 (mRNA) in mouse skin tissue (MMP-9): decreased
level of ICAM-1 expression increased by UV irradiation (ICAM-1 (CD54)): decreased
